Source: patent US20100107281A1, “PESTICIDAL COMBINATIONS” (priority 2006, published 2010)

System: Soybean Cyst Nematode (Heterodera Glycines)
Assay: Soybean cyst nematode reproduction on seed-treated soybean plants in cone-tainers, eggs counted 30 days after inoculation
Type: in vivo
Settings: soybean seed treatment
Source text: The expected percentage of disease control to be expected, E, for a given combination of two active ingredients can be calculated as follows (see COLBY, S. R. “Calculating synergistic and antagonistic response of herbicide combinations”. Weeds 15, pages 20-22; 1967):
wherein: X=% disease control in the case of treatment with active ingredient (A) at a defined application rate, in comparison with untreated control (=0%). Y=% disease control in the case of treatment with active ingredient (B) at a defined application rate, in comparison with untreated control. E=expected percentage of disease control (% disease control in comparison with untreated control) after treatment with active ingredient (A) and active ingredient (B) at a defined application rate. If the observed percentage of disease control O is greater than the expected value E, there is a synergistic effect.
Soybeans were planted into “cone-tainers” (3.8 cm cell diameter; 14 cm cell depth; the Ray Leach “Cone-tainer” Single Cell System consists of individual cells that can be arranged within a tray and is available from Stuewe and Sons Incorporated) in 70% sand 30% clay loam soil mix (one soybean seed per cone-tainer). The cone-tainers contained a 10 cm by 10 cm piece of cheesecloth at the bottom to prevent the soil coming out of the bottom. The soil mix was autoclaved for 60 minutes prior to use. Extra cone-tainers were planted which allowed similar size soybean plants to be selected and placed into a randomized complete block design with 3 replications of each treatment. The cone-tainers were placed into a growth chamber set at 27° C. and 14 hour day light periods. The air temperature in the growth chamber was monitored in 15 minutes intervals using a watchdog data collector. […] The water source was supplemented with fertilizer to promote plant growth.
Soil was collected from a field with “HG type” 2.5.7 (The “HG type” test is a greenhouse test that provides information on how well a soybean cyst nematode “Heterodera glycines, HG” population can reproduce in a particular soil). The soil was added to water and poured over a 25 mesh sieve over a 60 mesh sieve to collect the cysts. The soil solution collected on the 60 mesh sieve was then placed onto a 120 mesh sieve over 500 mesh sieve. […]
The soybean plants were inoculated with 6,000 soybean cyst nematode eggs 7 days after the planting of the soybeans into the cone-tainers. […] The air temperature in the growth chamber was monitored in 15 minutes intervals using a watchdog data collector. […]
The plants were removed from the growth chamber 30 days after inoculation to assess the nematode reproduction factor. […] The total number of soybean cyst nematode eggs present in each sample was determined. […]

Compound	Observed Rf (nematode reproduction factor) (2.5 g acibenzolar-S-methyl/100 kg seed, 30 days after inoculation)	Observed Rf (nematode reproduction factor) (5.0 g acibenzolar-S-methyl/100 kg seed, 30 days after inoculation)	Observed Rf (nematode reproduction factor) (10.0 g acibenzolar-S-methyl/100 kg seed, 30 days after inoculation)	Observed Rf (nematode reproduction factor) (0.15 mg abamectin/seed, 30 days after inoculation with 6,000 eggs)
CSC(=O)c1cccc2nnsc12 [(B-1), acibenzolar-S-methyl]	4.1	2.7	3.9	
abamectin [(A-a)]				2.5
